Source: US9567331B2 (priority 2011, dated 2017)

Columns and labels:
[1] = system: EV, IV and LV reporter viruses; type: cell-based
[2] = system: cellular and viral protein synthesis
[3] = system: monkeypox Zaire 1979 (MPDX); type: cell-based
[4] = system: LREV virus (late red early Venus reporter vaccinia virus); type: cell-based
[5] = system: wild-type vaccinia strain Western Reserve; type: cell-based
[6] = system: cowpox Brighton red (CPX); type: cell-based
HIV/Lai = assay: microbe, parasite or virus in culture; type: cell-based; settings: Human immunodeficiency virus 1, TZM-bl, read-out: IC50, inhibition of HIV
[7] = system: viral DNA replication (LV virus); type: cell-based
[8] = system: LV virus / LR virus in A549 cells; type: cell-based, vaccinia strain Western Reserve
[9] = system: LV virus late reporter expression; type: cell-based, vaccinia strain Western Reserve
TrpV reporter virus = type: cell-based
[10] = system: EV, IV and LV reporter mRNA; type: cell-based, vaccinia strain Western Reserve
[11] = system: vaccinia virus strain IHDJ; type: cell-based
[12] = system: late Venus; LV virus (Venus under control of the late F17R promoter); type: cell-based, vaccinia strain Western Reserve
vaccinia virus = type: cell-based

For `CC(=O)C1=C2C=CCCN2C(=O)N[C@H]1c1ccccc1` [CMLDBU6128, 4-acetyl-2,3,7,8-tetrahydro-3-phenylpyrido[1,2-f]pyrimidin-1-one], the “EV (early) reporter expression” value [1] was “unaffected”, the “IV (intermediate) reporter expression” value [1] was “only reached half-maximal levels” and the “reduction of maximum LV (late) reporter fluorescence” value [1] was “approximately 85%”. The “cellular protein synthesis in mock-infected cells” value [2] was “unaffected”, the viral protein synthesis [2] was “globally reduced” and the viral yield reduction [3] was 2.5 log. For the same molecule, the “antiviral activity of screening hit” value [4] was “strongly antiviral”, the “virus yield reduction, single-cycle” value [5] was 3.6 log and the viral yield reduction [6] was 4.0 log. The IC50 (HIV/Lai) was roughly 20 µM, the “Venus DNA copies/c.e.” value [7] was 529 copies/c.e and the “viral DNA replication” value [7] was “occurred normally”. The “viral spread after low MOI infection” value [8] was “limits viral spread after low MOI infection”, the “reporter expression after drug removal” value [9] was “drug removal did not result in a restart of reporter expression” and the “time to flattening of late reporter expression after addition to an unimpeded 10 h infection” value [9] was no more than 2 h. For the same molecule, the “early Venus expression (TrpV)” value (TrpV reporter virus) was “no detectable effect”, the “mCherry and late TagBFP expression (TrpV)” value (TrpV reporter virus) was “reduced mCherry and late TagBFP expression uniformly” and the “cytotoxicity of screening hit” value (A549 and HeLa cells) was “not cytotoxic”. The cell cytotoxicity (A549 and HeLa cells; 24 h) was “little to no cell cytotoxicity”, the “EV reporter mRNA accumulation” value [10] was “unaffected” and the “reduction of peak IV reporter mRNA” value [10] was 41%. The “reduction of peak LV reporter mRNA” value [10] was 73%, the viral yield reduction [11] was 2.4 log and the IC50 ([12]; read-out: IC50 for LV reporter expression) was roughly 5.3 µM. The IC90 ([12]; read-out: IC90 for LV reporter expression) was roughly 10.4 µM.
For `Nc1ccn([C@@H]2O[C@H](CO)[C@@H](O)[C@@H]2O)c(=O)n1` [AraC], the “virus yield reduction, single-cycle” value [5] was 3.5 log.
In the case of `O=C(NN1C(=O)[C@@H]2[C@@H]3C=C[C@@H]([C@H]4C[C@@H]34)[C@@H]2C1=O)c1ccc(C(F)(F)F)cc1` [ST-246], the “virus yield reduction, single-cycle” value [5] is reported as 0.3 log.
With `CC(=O)C1=C2C=C(C)CCN2C(=O)NC1c1ccccc1` (centres unmarked) [Compound 3b, 4-acetyl-6-methyl-3-phenyl-2,3,7,8-tetrahydro-1H-pyrido[1,2-c]pyrimidin-1-one] the “antiviral activity compared with CMLDBU6128” value (vaccinia virus) was “demonstrated antiviral activity but were significantly less active than CMLDBU6 128”.
Molecule `COC(=O)C1=C2C=C([Si](C)(C)C)CCN2C(=O)NC1c1ccccc1` (centres unmarked) [Compound 4c, methyl 1-oxo-3-phenyl-6-(trimethylsilyl)-2,3,7,8-tetrahydro-1Hpyrido[1,2-c]pyrimidine-4-carboxylate] has a melting point of 169 to 172 °C.
